Experimental data reported in paper PMC10354055, “An optimized Nurr1 agonist provides disease-modifying effects in Parkinson’s disease models” (Nature Communications, 2023).
Where “and” joins values, the source holds several entries; their conditions need not be identical. Equal entries are not always repeated.

Legend:
N27-A cells [1] = assay: Autophagolysosome (APL) formation assay, mRFP-GFP-LC3, N27-A cells; format: cell-based, rat; details: Figure 3b; mRFP-GFP-LC3; individual cells (30 per treatment)
Experimental: (§1) HeLa and N27-A cells were transfected with tandem mRFP-GFP-LC3 (Addgene) plasmid using Lipofectamine 2000 (Invitrogen) in 24-well plates. After 24 h, cells were incubated in starvation medium (Earle’s Balanced Salt Solution, EBSS; Lonza) containing bafilomycin A1 (BafA1, 10 nM), CQ (20 µM), or 4A7C-301 (1 µM) for 6 h and then fixed with 4% formaldehyde for fluorescence detection. Images were taken using a KEYENCE microscope and red (mRFP) LC3 dots and yellow (mRFP+GFP) LC3 dots were counted from three independent wells for each treatment group. 10 cells were randomly selected and counted from each well and a total of 30 cells were analyzed for each treatment group in both HeLa and N27-A cells.

HeLa cells [2] = assay: Autophagolysosome (APL) formation assay, mRFP-GFP-LC3, HeLa cells; format: cell-based; details: EBSS, BafA1 10 nM, CQ 20 µM, 4A7C-301 1 µM
Experimental: Nurr1 transactivity was normalized to β-galactosidase activity.
as §1

HeLa cells [3] = assay: Autophagic flux, Western blot LC3B and p62, HeLa cells; format: cell-based; details: for Relative LC3B-II experession (normalized to β-actin): Supplementary Figure S7f; for Relative p62 experession (normalized to β-actin): Supplementary Figure S7g
Experimental: (§2) Experiments were confirmed by duplicate measurements of the same sample. Quantification of immunoreactive bands was performed using ImageJ software (NIH, Bethesda, MD, USA) and expressed as a relative ratio against β-actin.
(§3) The band intensities were quantified using ImageJ and normalized against β-actin.

HeLa cells [4] = assay: Lysosomal pH detection, LysoSensor, HeLa cells; format: cell-based
Experimental: (§4) Lysosomal pH was detected as previously described. Briefly, after incubation in EBSS containing BafA1 (10 nM), CQ (20 µM), or 4A7C-301 (1 µM) for 6 h, HeLa and N27-A cells were treated with LysoSensor™ Yellow/Blue DND-160 (5 µM; Life Technology) for 45 min, followed by 2 washes in HEPES buffer (Gibco). Fluorescence images at excitation/emission wavelengths of 360/460 nm and 470/525 nm were taken immediately using a 400 nm dichroic mirror (KEYENCE). The ratio of fluorescence intensities (F360/470) were measured and calculated manually using ImageJ for each cell. The average pH from measuring 5 cells from each of three wells for each treatment group in both HeLa and N27-A cells was calculated by fitting the F360/470 values to a plotted pH calibration curve with KCl/NaCl buffered from pH 3.5 to 7.0 using GraphPad Prism (Version 8.0.2).

N27-A cells [5] = assay: Lysosomal pH detection, LysoSensor, N27-A cells; format: cell-based, rat
Experimental: as §4

N27-A cells [6] = assay: Autophagic flux, Western blot LC3B and p62, N27-A cells; format: cell-based, rat; details: individual replicates
Experimental: as §2, §3

Structure (SMILES): CO/C1=C\C(C)=C\[C@@H](C)[C@@H](O)[C@@H](C)C/C(C)=C/C=C/[C@H](OC)[C@@H]([C@@H](C)[C@@H](O)[C@H](C)[C@@]2(O)C[C@@H](O)[C@H](C)[C@@H](C(C)C)O2)OC1=O [BafA1, bafilomycin A1]
- LC3 dots/cell, Red LC3 dots (N27-A cells [1]): 1 dots/cell (14×) and 2 dots/cell (6×) and 0 dots/cell (8×) and 5 dots/cell and 3 dots/cell
- LC3 dots/cell, Yellow LC3 dots (N27-A cells [1]): 28 dots/cell (2×) and 29 dots/cell (3×) and 21 dots/cell and 37 dots/cell (2×) and 20 dots/cell and 41 dots/cell (2×) and 27 dots/cell (2×) and 31 dots/cell (6×) and 18 dots/cell and 32 dots/cell and 40 dots/cell (2×) and 38 dots/cell and 33 dots/cell and 36 dots/cell and 24 dots/cell and 22 dots/cell and 30 dots/cell and 23 dots/cell
- APL formation / autophagy (in words) (HeLa cells [2]): completely inhibited
- autophagic flux (in words) (HeLa cells [3]; HeLa, LC3B-II and p62): failed to terminate
- Relative LC3B-II experession (normalized to β-actin) (HeLa cells [3]; time 0h): 0.339 and 0.384 and 0.423
- Relative LC3B-II experession (normalized to β-actin) (HeLa cells [3]; time 0.5h): 0.689 and 0.867 and 0.926
- Relative LC3B-II experession (normalized to β-actin) (HeLa cells [3]; time 1h): 0.885 and 1.051 and 1.126
- Relative LC3B-II experession (normalized to β-actin) (HeLa cells [3]; time 2h): 0.981 and 1.172 and 1.156
- Relative LC3B-II experession (normalized to β-actin) (HeLa cells [3]; time 4h): 1.098 and 1.172 and 1.288
- Relative p62 experession (normalized to β-actin) (HeLa cells [3]; time 0h): 0.909 and 0.809 and 0.904
- Relative p62 experession (normalized to β-actin) (HeLa cells [3]; time 0.5h): 0.781 and 0.847 and 0.974
- Relative p62 experession (normalized to β-actin) (HeLa cells [3]; time 1h): 0.754 and 0.822 and 0.940
- Relative p62 experession (normalized to β-actin) (HeLa cells [3]; time 2h): 0.804 and 0.850 and 0.987
- Relative p62 experession (normalized to β-actin) (HeLa cells [3]; time 4h): 0.978 and 0.992 and 1.169
- lysosomal pH (in words) (HeLa cells [4]; HeLa, BafA1 10 nM, CQ 20 µM, 4A7C-301 1 µM): significantly increased
- Lysosomal pH (HeLa cells [4]; Supplementary Figure S7d, individual replicates): 6.632 and 6.371 and 6.762 and 6.208 and 6.436 and 6.697 and 6.241 and 7.055 and 6.469 and 6.827 and 6.045
- Lysosomal pH (N27-A cells [5]; Figure 3d, individual replicates): 6.143 and 6.404 and 6.371 and 6.241 and 6.729 and 6.827 and 6.567 and 6.11 and 6.469 and 6.925 and 6.664 and 6.078 and 6.045
- lysosomal pH (in words) (N27-A cells [5]; N27-A, BafA1 10 nM, CQ 20 µM, 4A7C-301 1 µM): significantly increased
- Relative LC3B-II experession (normalized to β-actin) (N27-A cells [6]; Figure 3f, w/ MPP+, 0h): 0.733 and 0.699 and 0.753
- Relative LC3B-II experession (normalized to β-actin) (N27-A cells [6]; Figure 3f, w/ MPP+, 4h): 1.710 and 1.577 and 1.762
- Relative LC3B-II experession (normalized to β-actin) (N27-A cells [6]; Figure 3f, w/o MPP+, 0h): 0.546 and 0.525 and 0.431
- Relative LC3B-II experession (normalized to β-actin) (N27-A cells [6]; Figure 3f, w/o MPP+, 4h): 1.603 and 1.576 and 1.411
- Relative LC3B-II experession (normalized to β-actin) (N27-A cells [6]; Figure 3g, w/ MPP+, 0h): 1.449 and 1.354 and 1.694
- Relative LC3B-II experession (normalized to β-actin) (N27-A cells [6]; Figure 3g, w/ MPP+, 4h): 1.439 and 1.341 and 1.659
- Relative LC3B-II experession (normalized to β-actin) (N27-A cells [6]; Figure 3g, w/o MPP+, 0h): 1.447 and 1.262 and 1.249
- Relative LC3B-II experession (normalized to β-actin) (N27-A cells [6]; Figure 3g, w/o MPP+, 4h): 1.807 and 1.586 and 1.554
